Consider 45 compounds from patent US20240208968A1, “ALPHA V BETA 6 AND ALPHA V BETA 1 INTEGRIN INHIBITORS AND USES THEREOF” (DiCE Molecules SV, Inc., priority 2021, published 2024).

By IC50 is commonly meant the concentration that gives 50% inhibition.

For assay [1], the target named is αvβ1 (Homo sapiens, UniProt P05556+P06756). The assay is described as follows: Solid Phase Integrin αvβ1 Assay. It is filed as binding. The essentials: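 Wells coated with 1 µg/mL recombinant TGFb1-LAP and blocked with 2% BSA/TBST, 1 mM MnCl2; αvβ1 (added at 0.2 µg/mL) and compound incubated 90 min at room temperature. Bound integrin detected by streptavidin-HRP (20 min) and TMB after Mn-containing washes; IC50 by four-parameter logistic fit.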
Sequence of αvβ1 (P06756 31-992 limits assumed): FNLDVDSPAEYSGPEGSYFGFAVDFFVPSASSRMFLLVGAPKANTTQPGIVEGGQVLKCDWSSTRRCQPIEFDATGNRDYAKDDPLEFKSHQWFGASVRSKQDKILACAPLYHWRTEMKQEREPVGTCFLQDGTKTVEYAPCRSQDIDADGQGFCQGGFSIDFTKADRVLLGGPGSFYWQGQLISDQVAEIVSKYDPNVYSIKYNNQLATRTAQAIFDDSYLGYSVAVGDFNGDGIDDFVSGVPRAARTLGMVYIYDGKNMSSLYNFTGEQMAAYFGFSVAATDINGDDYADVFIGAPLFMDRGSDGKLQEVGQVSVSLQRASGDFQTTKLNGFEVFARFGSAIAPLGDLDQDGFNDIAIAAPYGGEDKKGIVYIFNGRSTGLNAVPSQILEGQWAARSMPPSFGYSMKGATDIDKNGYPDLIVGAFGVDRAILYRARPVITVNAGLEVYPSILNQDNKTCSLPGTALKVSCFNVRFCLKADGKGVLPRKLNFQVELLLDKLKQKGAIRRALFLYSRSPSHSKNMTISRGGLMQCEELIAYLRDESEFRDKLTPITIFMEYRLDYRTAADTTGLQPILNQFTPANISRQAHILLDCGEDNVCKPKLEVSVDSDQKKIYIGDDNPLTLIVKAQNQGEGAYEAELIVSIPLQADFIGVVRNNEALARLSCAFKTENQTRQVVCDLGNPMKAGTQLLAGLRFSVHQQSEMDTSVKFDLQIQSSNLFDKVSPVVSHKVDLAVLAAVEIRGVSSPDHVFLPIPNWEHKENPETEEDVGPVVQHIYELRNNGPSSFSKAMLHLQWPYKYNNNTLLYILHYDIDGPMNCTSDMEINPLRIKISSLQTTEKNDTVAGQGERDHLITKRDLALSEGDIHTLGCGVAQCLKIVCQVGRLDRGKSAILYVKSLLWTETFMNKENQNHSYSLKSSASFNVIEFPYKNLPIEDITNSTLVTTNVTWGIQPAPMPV
Sequence of αvβ1 (P05556 21-728 limits assumed): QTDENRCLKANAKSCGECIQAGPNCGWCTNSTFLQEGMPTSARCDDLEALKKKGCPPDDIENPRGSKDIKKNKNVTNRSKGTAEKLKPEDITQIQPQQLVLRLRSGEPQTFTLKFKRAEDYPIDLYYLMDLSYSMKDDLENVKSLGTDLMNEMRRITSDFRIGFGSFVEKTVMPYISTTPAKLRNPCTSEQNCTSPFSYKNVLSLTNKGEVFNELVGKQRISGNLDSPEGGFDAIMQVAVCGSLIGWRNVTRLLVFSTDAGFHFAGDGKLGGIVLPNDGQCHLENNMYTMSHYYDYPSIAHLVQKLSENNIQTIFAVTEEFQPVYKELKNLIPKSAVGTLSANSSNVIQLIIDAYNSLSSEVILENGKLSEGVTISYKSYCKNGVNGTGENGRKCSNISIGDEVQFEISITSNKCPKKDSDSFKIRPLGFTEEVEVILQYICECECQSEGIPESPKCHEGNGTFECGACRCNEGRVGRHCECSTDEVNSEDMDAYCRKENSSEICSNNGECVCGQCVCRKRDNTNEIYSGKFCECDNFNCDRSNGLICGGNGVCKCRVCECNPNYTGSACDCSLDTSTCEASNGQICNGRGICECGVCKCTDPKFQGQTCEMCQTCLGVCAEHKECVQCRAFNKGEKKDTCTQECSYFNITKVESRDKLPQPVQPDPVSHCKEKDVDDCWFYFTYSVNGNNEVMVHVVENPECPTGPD

Assay [2] has as its target αvβ6 (Homo sapiens, UniProt P06756+P18564). The assay is described as follows: Solid Phase Integrin αvβ6 Assay. It is filed as binding. The essentials:
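Plates coated with 1 μg/mL recombinant TGFb1-LAP; compounds and αvβ6 (0.2 μg/mL diluted stock) incubated 1 h at room temperature in 2% BSA/TBST with 1 mM MnCl2. Bound integrin detected with streptavidin-HRP and TMB; IC50 from four-parameter logistic fits.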

Sequence of αvβ6 (P06756 31-992 limits assumed): as the sequence (P06756 31-992 limits assumed) above
Sequence of αvβ6 (P18564 22-707 limits assumed): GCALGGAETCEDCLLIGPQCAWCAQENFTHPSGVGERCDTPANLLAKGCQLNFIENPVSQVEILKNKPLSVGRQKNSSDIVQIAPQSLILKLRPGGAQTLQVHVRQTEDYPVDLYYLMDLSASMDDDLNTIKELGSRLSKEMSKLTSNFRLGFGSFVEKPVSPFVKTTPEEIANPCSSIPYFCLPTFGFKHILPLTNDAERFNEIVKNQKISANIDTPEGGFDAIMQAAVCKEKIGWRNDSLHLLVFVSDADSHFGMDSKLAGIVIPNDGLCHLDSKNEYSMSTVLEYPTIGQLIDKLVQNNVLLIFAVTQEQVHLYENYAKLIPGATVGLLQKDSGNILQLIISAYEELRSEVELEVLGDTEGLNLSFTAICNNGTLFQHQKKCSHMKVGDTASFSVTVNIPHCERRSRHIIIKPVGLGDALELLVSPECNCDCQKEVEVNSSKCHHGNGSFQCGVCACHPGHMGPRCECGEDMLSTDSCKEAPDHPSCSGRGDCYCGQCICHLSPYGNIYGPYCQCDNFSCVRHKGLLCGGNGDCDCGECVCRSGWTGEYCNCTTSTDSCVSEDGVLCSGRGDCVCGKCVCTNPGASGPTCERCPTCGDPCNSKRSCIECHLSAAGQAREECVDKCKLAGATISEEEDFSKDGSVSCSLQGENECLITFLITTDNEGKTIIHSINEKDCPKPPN

Turning to `O=C(NC1([C@H](C(=O)O)c2cccc(-c3ccccc3)c2)CC1)[C@@H]1CCCN(CCCc2ccc3c(n2)NCCC3)C1` [Compound 301-A, 2-([1,1′-biphenyl]-3-yl)-2-(1-((R)-1-(3-(5,6,7,8-tetrahydro-1,8-naphthyridin-2-yl)propyl)piperidine-3-carboxamido)cyclopropyl)acetic acid], the concentration for half-maximal inhibition (IC50) in assay [1] and in assay [2] was greater than 1000 nM in each case.
Consider `O=C(NC1([C@@H](C(=O)O)c2cccc(-c3ccccc3)c2)CC1)[C@@H]1CCCN(CCCc2ccc3c(n2)NCCC3)C1` [Compound 301-B, 2-([1,1′-biphenyl]-3-yl)-2-(1-((R)-1-(3-(5,6,7,8-tetrahydro-1,8-naphthyridin-2-yl)propyl)piperidine-3-carboxamido)cyclopropyl)acetic acid], for which the IC50 in assay [1] and in assay [2] was greater than 1000 nM each time.
With `O=C(NC[C@@H](C(=O)O)c1cccc(Br)c1)[C@@H]1CCCN(CCCc2ccc3c(n2)NCCC3)C1` [Compound 302], the IC50 in assay [1] and in assay [2] was less than 100 nM throughout.
On to `O=C(NC[C@H](C(=O)O)c1cccc(Br)c1)[C@@H]1CCCN(CCCc2ccc3c(n2)NCCC3)C1` [Compound 303], for which the IC50 in assay [1] and in assay [2] was less than 100 nM in each case.
For `O=C(NC[C@H](NC(=O)[C@@H]1CC2CCC1CC2)C(=O)O)[C@@H]1CCCN(CCCc2ccc3c(n2)NCCC3)C1` [Compound 304], the concentration for half-maximal inhibition (IC50) in assay [1] and in assay [2] was less than 100 nM throughout.
Turning to `O=C(NC[C@H](NC(=O)[C@H]1CC2CCC1CC2)C(=O)O)[C@@H]1CCCN(CCCc2ccc3c(n2)NCCC3)C1` [Compound 305], the IC50 in assay [1] and in assay [2] was less than 100 nM in each case.
Turning to `O=C(NC[C@H](C(=O)O)c1cc(F)cc(-c2ccccc2)c1)[C@@H]1CCCN(CCCc2ccc3c(n2)NCCC3)C1` [Compound 306], the IC50 in assay [1] and in assay [2] was 100 to 1000 nM in each case.
Take `O=C(NC[C@@H](C(=O)O)c1cc(F)cc(-c2ccccc2)c1)[C@@H]1CCCN(CCCc2ccc3c(n2)NCCC3)C1` [Compound 307]: the IC50 in assay [1] and in assay [2] was less than 100 nM in each case.
In the case of `O=C(NC[C@@H](C(=O)O)c1ccc(F)c(-c2ccccc2)c1)[C@@H]1CCCN(CCCc2ccc3c(n2)NCCC3)C1` [Compound 308], the 50% inhibitory concentration (IC50) in assay [1] and in assay [2] was 100 to 1000 nM in each case.
Regarding `O=C(NC[C@H](C(=O)O)c1ccc(F)c(-c2ccccc2)c1)[C@@H]1CCCN(CCCc2ccc3c(n2)NCCC3)C1` [Compound 309], the concentration for half-maximal inhibition (IC50) in assay [1] and in assay [2] was less than 100 nM in each case.
In the case of `O=C(N[C@@H](CNC(=O)[C@@H]1CCCN(CCCc2ccc3c(n2)NCCC3)C1)C(=O)O)C1CCOCC1` [Compound 311], the 50% inhibitory concentration (IC50) in assay [1] and in assay [2] was less than 100 nM throughout.
Consider `O=C(N[C@@H](CNC(=O)[C@@H]1CCCN(CCCc2ccc3c(n2)NCCC3)C1)C(=O)O)c1ccncc1` [Compound 312], for which the half-maximal inhibitory concentration (IC50) in assay [1] and in assay [2] was less than 100 nM throughout.
Take `O=C(N[C@@H](CNC(=O)[C@@H]1CCCN(CCCc2ccc3c(n2)NCCC3)C1)C(=O)O)c1nnc(C2CC2)o1` [Compound 313]: the IC50 in assay [1] and in assay [2] was less than 100 nM throughout.
As to `O=C(NC[C@@H](C(=O)O)c1cccc2c1cnn2CC1CC1)[C@@H]1CCCN(CCCc2ccc3c(n2)NCCC3)C1` [Compound 314], the concentration for half-maximal inhibition (IC50) in assay [1] and in assay [2] was 100 to 1000 nM each time.
In the case of `O=C(NC[C@H](C(=O)O)c1cccc2c1cnn2CC1CC1)[C@@H]1CCCN(CCCc2ccc3c(n2)NCCC3)C1` [Compound 315], the concentration for half-maximal inhibition (IC50) in assay [1] and in assay [2] was less than 100 nM in each case.
Regarding `O=C(NC[C@@H](C(=O)O)c1cccc2nn(CC3CC3)cc12)[C@@H]1CCCN(CCCc2ccc3c(n2)NCCC3)C1` [Compound 316], the IC50 in assay [1] is 100 to 1000 nM; in assay [2], greater than 1000 nM.
The like results for `O=C(NC[C@H](C(=O)O)c1cccc2nn(CC3CC3)cc12)[C@@H]1CCCN(CCCc2ccc3c(n2)NCCC3)C1` [Compound 317] were, in that order, less than 100 nM and less than 100 nM.
The like results for `O=C(NC[C@H](C(=O)O)c1cccc2n[nH]cc12)[C@@H]1CCCN(CCCc2ccc3c(n2)NCCC3)C1` [Compound 318] were, in that order, 100 to 1000 nM and greater than 1000 nM.
The like results for `O=C(NC[C@@H](C(=O)O)c1cccc2n[nH]cc12)[C@@H]1CCCN(CCCc2ccc3c(n2)NCCC3)C1` [Compound 319] were, in that order, less than 100 nM and less than 100 nM.
Regarding `O=C(NC[C@@H](C(=O)O)c1cccc2cnn([C@H]3CCOC3)c12)[C@@H]1CCCN(CCCc2ccc3c(n2)NCCC3)C1` [Compound 320], the concentration for half-maximal inhibition (IC50) in assay [1] and in assay [2] was greater than 1000 nM each time.
For `O=C(NC[C@H](C(=O)O)c1cccc2cnn([C@H]3CCOC3)c12)[C@@H]1CCCN(CCCc2ccc3c(n2)NCCC3)C1` [Compound 321], the concentration for half-maximal inhibition (IC50) in assay [1] was less than 100 nM; in assay [2], 100 to 1000 nM.
Regarding `O=C(NC[C@@H](C(=O)O)c1cccc2cnn([C@@H]3CCOC3)c12)[C@@H]1CCCN(CCCc2ccc3c(n2)NCCC3)C1` [Compound 322], the IC50 is 100 to 1000 nM in assay [1] and greater than 1000 nM in assay [2].
On the same counts, the results for `O=C(NC[C@H](C(=O)O)c1cccc2cnn([C@@H]3CCOC3)c12)[C@@H]1CCCN(CCCc2ccc3c(n2)NCCC3)C1` [Compound 323] are less than 100 nM and less than 100 nM.
The like results for `O=C(NC[C@@H](C(=O)O)c1cnc2[nH]ccc2c1)[C@@H]1CCCN(CCCc2ccc3c(n2)NCCC3)C1` [Compound 324] were, in that order, less than 100 nM and greater than 1000 nM.
Regarding `O=C(NC[C@H](C(=O)O)c1cnc2[nH]ccc2c1)[C@@H]1CCCN(CCCc2ccc3c(n2)NCCC3)C1` [Compound 325], the IC50 in assay [1] and in assay [2] was less than 100 nM throughout.
On to `O=C(NC[C@@H](C(=O)O)c1cnc2c(ccn2CC2CC2)c1)[C@@H]1CCCN(CCCc2ccc3c(n2)NCCC3)C1` [Compound 326], for which the IC50 in assay [1] and in assay [2] was less than 100 nM each time.
For `O=C(NC[C@H](C(=O)O)c1cnc2c(ccn2CC2CC2)c1)[C@@H]1CCCN(CCCc2ccc3c(n2)NCCC3)C1` [Compound 327], the IC50 in assay [1] and in assay [2] was less than 100 nM in each case.
As to `O=C(O)C[C@@H](NC(=O)[C@@H]1CCCN(CCCc2ccc3c(n2)NCCC3)C1)c1ccc2c(c1)C1(CC2)CC1` [Compound 328], the IC50 in assay [1] and in assay [2] was 100 to 1000 nM in each case.
`O=C(O)[C@H](CCO[C@@H]1CCCN(CCCc2ccc3c(n2)NCCC3)C1)c1cccc(-c2ccccc2)c1` [Compound 329]: the IC50 in assay [1] and in assay [2] was greater than 1000 nM throughout.
Turning to `O=C(O)[C@@H](CCO[C@@H]1CCCN(CCCc2ccc3c(n2)NCCC3)C1)c1cccc(-c2ccccc2)c1` [Compound 330], the IC50 in assay [1] is greater than 1000 nM; in assay [2], less than 100 nM.
On to `O=C(O)[C@@H](CCO[C@@H]1CCCN(CCCc2ccc3c(n2)NCCC3)C1)NC(=O)C12CCC(CC1)CC2` [Compound 331], for which the 50% inhibitory concentration (IC50) in assay [1] and in assay [2] was less than 100 nM in each case.
`O=C(O)[C@@H](CCO[C@@H]1CCCN(CCCc2ccc3c(n2)NCCC3)C1)Nc1ncnc2ccccc12` [Compound 332]: the values for the IC50 in assay [1] and in assay [2] were greater than 1000 nM and 100 to 1000 nM, respectively.
On to `O=C(O)[C@H](CCO[C@@H]1CCCN(CCCc2ccc3c(n2)NCCC3)C1)NC(=O)C12CCC(CC1)CC2` [Compound 333], for which the IC50 in assay [1] and in assay [2] was 100 to 1000 nM throughout.
In the case of `O=C(O)[C@H](CCO[C@@H]1CCCN(CCCc2ccc3c(n2)NCCC3)C1)Nc1ncnc2ccccc12` [Compound 334], the IC50 in assay [1] and in assay [2] was less than 100 nM in each case.
For the compound `O=C(O)CC(CO[C@@H]1CCCN(CCc2ccc3c(n2)NCCC3)C1)c1ccccc1` (stereo partly drawn) [Compound 335], the IC50 in assay [1] and in assay [2] was 100 to 1000 nM in each case.
As for `O=C(O)CC(CO[C@@H]1CCCN(Cc2ccc3c(n2)NCCC3)C1)c1ccccc1` (stereo partly drawn) [Compound 336], the values for the half-inhibitory concentration (IC50) in assay [1] and in assay [2] were greater than 1000 nM and 100 to 1000 nM, respectively.
The like results for `O=C(O)CC(CO[C@H]1CCCN(CCCc2ccc3c(n2)NCCC3)C1)c1ccccc1` (stereo partly drawn) [Compound 337] were, in that order, 100 to 1000 nM and 100 to 1000 nM.
The like results for `O=C(N[C@@H](CNC(=O)[C@@H]1CCCN(CCCc2ccc3c(n2)NCCC3)C1)C(=O)O)C1CC2CCC1CC2` (stereo partly drawn) [Compound 338] were, in that order, less than 100 nM and less than 100 nM.
On the same counts, the results for `O=C(O)CC(NC(=O)[C@@H]1CCCN(CCCc2ccc3c(n2)NCCC3)C1)c1cccc2ccccc12` (stereo partly drawn) [Compound 339] are less than 100 nM and less than 100 nM.
`O=C(NC[C@@H](C(=O)O)c1ccccc1-c1ccccc1)[C@@H]1CCCN(CCCc2ccc3c(n2)NCCC3)C1` [Compound 340]: the 50% inhibitory concentration (IC50) in assay [1] and in assay [2] was 100 to 1000 nM throughout.
For `O=C(NC[C@H](C(=O)O)c1ccccc1-c1ccccc1)[C@@H]1CCCN(CCCc2ccc3c(n2)NCCC3)C1` [Compound 341], the IC50 in assay [1] and in assay [2] was greater than 1000 nM in each case.
As to `O=C(NC[C@H](C(=O)O)c1ccc(-c2ccccc2)cc1)[C@@H]1CCCN(CCCc2ccc3c(n2)NCCC3)C1` [Compound 342], the IC50 in assay [1] and in assay [2] was less than 100 nM each time.
For `O=C(O)C[C@@H](NC(=O)[C@@H]1CCCN(CCCc2ccc3c(n2)NCCC3)C1)c1cccc(C2CC2)c1F` [Compound 344], the IC50 in assay [1] and in assay [2] was less than 100 nM throughout.
Consider `O=C(O)C[C@@H](NC(=O)[C@@H]1CCCN(CCCc2ccc3c(n2)NCCC3)C1)c1ccccc1C1CC1` [Compound 345], for which the IC50 in assay [1] and in assay [2] was greater than 1000 nM throughout.
Consider `C[C@@H]1CC[C@H](C(=O)N[C@@H](CC(=O)O)c2ccccc2)CN1CCCc1ccc2c(n1)NCCC2` [Compound 346], for which the IC50 in assay [1] and in assay [2] was less than 100 nM in each case.
